In patent US4194006A, “Therapeutic application of acetyl-d,l-carnitine and other acyl derivatives of d,l-carnitine” (priority 1977, dated 1980):
Read-outs that look alike come from different tables or passages of the source.

Key:
in vivo = conditions: mouse, in vivo, iv
Excerpt: The tolerance of acetyl-d,l-carnitine and of the other aforementioned acyl derivatives of the formula (I), as well as their salts were investigated by comparing the LD50 obtained by administering the compounds intravenously in mice with the LD50 obtained under the same experimental conditions by intravenous injection of d,l-carnitine.

isolated rat atrium = test: antiarrhythmic effect, isolated rat atrium method of M. Libonati and G. Segre; conditions: Rattus norvegicus
heart homogenates = test: oxygen consumption (Q O2) in heart homogenates with and without added CoA; assay type: biochemical; conditions: compound 10^-3 M
female rats = test: antifatigue effect: rota-rod; assay type: in vivo, rat; conditions: Rattus norvegicus, ip, 0.25 h; for responders at 200 mg/kg: read-out: percentage of animals staying on the rota-rod more than 180 seconds, 200 mg/kg i.p.; for responders at 300 mg/kg: read-out: percentage of animals staying on the rota-rod more than 180 seconds, 300 mg/kg i.p.; for responders at 400 mg/kg: read-out: percentage of animals staying on the rota-rod more than 180 seconds, 400 mg/kg i.p.; for responders at 600 mg/kg: read-out: percentage of animals staying on the rota-rod more than 180 seconds, 600 mg/kg i.p.
How it was run: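 Female rats dosed intraperitoneally in saline, with controls given saline alone. Every 15 min after treatment animals were placed on a 6 cm rod rotating at 16 r.p.m. Value is the percentage of animals staying on the rod for more than 180 s, per session.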

isolated rabbit hearts [1] = test: coronary vasodilator effect: coronary flow, isolated heart (Langendorff)
How it was run: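 Langendorff-perfused isolated rabbit hearts in oxygenated Ringer at 38.2° C; anoxia imposed until contractile force fell by 80%, then reoxygenated with or without test compound. Coronary flow, isometric contraction and ECG recorded by polygraph.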

isolated rabbit hearts [2] = test: cardiokinetic effect on isolated heart (Langendorff): contractile force after anoxia, positive inotropic effect; conditions: 10 minutes from interruption of anoxic period
How it was run: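 Rabbit hearts were perfused Langendorff-style with oxygenated Ringer at 38.2 °C. Anoxia was applied until contractile force dropped by 80%, then the hearts were reoxygenated with or without compound. Contractile force was expressed as a percentage 10 min after the anoxic period ended.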

[3] = read-out: Mean percent variation versus controls: excitability (-%)
[4] = read-out: Mean percent variation versus controls: frequency max (-%)
[5] = read-out: Mean percent variation versus controls: refractory period (+%)
[6] = read-out: Mean percent variation versus controls: rheobase (+%)
[7] = session 6 (every 15 minutes), * p < 0.05

## C[N+](C)(C)CC(O)CC(=O)[O-] (racemic) [d,l-carnitine, γ-trimethyl amino β-hydroxy butyric acid]
In vivo
  LD50: ~610 mg/kg
Isolated rat atrium; [3]
  inhibition at 0.001 µg/mL: 12.7%
  inhibition at 0.01 µg/mL: 19.3%
  inhibition at 0.1 µg/mL: 27.1%
Isolated rat atrium; [4]
  inhibition at 0.001 µg/mL: 7.28%
  inhibition at 0.01 µg/mL: 23.6%
  inhibition at 0.1 µg/mL: 25.2%
Isolated rat atrium; [5]
  activation at 0.001 µg/mL: 18.3%
  activation at 0.01 µg/mL: 26%
  activation at 0.1 µg/mL: 31.1%
Isolated rat atrium; [6]
  activation at 0.001 µg/mL: 5.81%
  activation at 0.01 µg/mL: 9.07%
  activation at 0.1 µg/mL: 20.3%
Heart homogenates; added CoA 0
  Q O2: 7.0 μlO2 /mg protein/hr.
Heart homogenates; added CoA 2 × 10^-6 M
  Q O2: 8.4 μlO2 /mg protein/hr.
Heart homogenates; added CoA 4 × 10^-6 M
  Q O2: 19.5 μlO2 /mg protein/hr.
Heart homogenates; added CoA 8 × 10^-7 M
  Q O2: 8.1 μlO2 /mg protein/hr.
Female rats; session 1 (every 15 minutes)
  responders at 200 mg/kg: 0%
  responders at 300 mg/kg: 0%
  responders at 400 mg/kg: 0%
  responders at 600 mg/kg: 0%
Female rats; session 2 (every 15 minutes)
  responders at 200 mg/kg: 0%
  responders at 300 mg/kg: 0%
  responders at 400 mg/kg: 0%
  responders at 600 mg/kg: 16.7%
Female rats; session 3 (every 15 minutes)
  responders at 200 mg/kg: 0%
  responders at 300 mg/kg: 0%
  responders at 400 mg/kg: 8.33%
  responders at 600 mg/kg: 16.7%
Female rats; session 4 (every 15 minutes)
  responders at 200 mg/kg: 0%
  responders at 300 mg/kg: 0%
  responders at 400 mg/kg: 25%
  responders at 600 mg/kg: 16.7%
Female rats; session 5 (every 15 minutes), * p < 0.05
  responders at 200 mg/kg: 0%
Female rats; [7]
  responders at 200 mg/kg: 0%
  responders at 400 mg/kg: 25%
  responders at 600 mg/kg: 25%
Female rats; session 5 (every 15 minutes)
  responders at 300 mg/kg: 10%
  responders at 400 mg/kg: 25%
  responders at 600 mg/kg: 16.7%
Female rats; session 6 (every 15 minutes)
  responders at 300 mg/kg: 10%
Isolated rabbit hearts [1]; 1·10^-5 g/lt
  Coronary flow, Mean ± S.E.: 85.18 ± 3.26%
Isolated rabbit hearts [1]; 1·10^-6 g/lt
  Coronary flow, Mean ± S.E.: 74.02 ± 6.17%
Isolated rabbit hearts [1]; 5·10^-6 g/lt
  Coronary flow, Mean ± S.E.: 77.85 ± 3.01%
Isolated rabbit hearts [2]; 1·10^-5 g/lt
  Contractile force, Mean ± S.E.: 50.9 ± 3.01%
Isolated rabbit hearts [2]; 1·10^-6 g/lt
  Contractile force, Mean ± S.E.: 28.4 ± 3.15%
Isolated rabbit hearts [2]; 5·10^-6 g/lt
  Contractile force, Mean ± S.E.: 32.2 ± 2.90%
